{"source": "patent US20130079370A1", "about": "“Method for the Inhibition of Deubiquitinating Activity” (priority 2011, published 2013)", "key": {"[1]": {"test_system": "proteasome reporter cell line MelJuSo Ub-YFP (UbG76V-YFP)", "test": "Ub-YFP proteasome reporter cell line, accumulation of reporter", "type": "cell-based", "conditions": "Homo sapiens, MEL-JUSO; immunoblotting and flow cytometry; read-out: IC50, dose dependent accumulation of the Ub-YFP reporter", "experimental": "b-AP15 blocks cellular proteasome function, as confirmed by use of a reporter cell line, which expresses ubiquitin tagged to yellow fluorescent protein (UbG76V-YFP) constitutively targeted for proteasomal degradation (12). […] Since inhibition of proteasome function is characterized by defects in ubiquitin turnover (13) colon carcinoma HCT116 cells were treated with b-AP15 and the level of ubiqutin conjugation analyzed by immunoblotting. […] The increase in polyubiquitin is associated with a strong proteotoxic response characterized by induction of HSPA6 (Hsp70B′), HSPA1B and DNAJB1 (Hsp40).\nMCF7 cells were maintained in MEM/10% fetal calf serum. HCT-116 p53+/+, p53−/−, Bcl-2+/+, PUMA−/− and BAX−/− cells were maintained in McCoy's 5A modified medium/10% fetal calf serum. The HCT-116 p53+/+, p53−/−, PUMA−/− and BAX−/− were generated as described (36). The HCT-116 Bcl-2+/+ cell line was generated by transfecting parental HCT-116 p53+/+ cells with pCEP4 Bcl-2 (Addgene plasmid 16461) (37) and isolating high expression clones. […]\nb-AP15 inhibits degradation of ubiquitin-tagged YFP in a proteasome reporter cell line (FIG. 1a). Levels of ^UbG76V-YFP accumulation were determined by flow cytometry and immunoblotting; immunoblot of ubiquitin conjugation in HCT-116 cells treated with b-AP15 (1 μM) or bortezomib (100 nM) (FIG. 1b). […]"}, "[2]": {"target": "T1, human 19S RP (Homo sapiens, UniProt P54578+Q9Y5K5)", "T1 construct": "purchased Boston Biochem E-366", "test": "De-ubiquitinase activity assay, Ub-AMC cleavage by 19S RP", "type": "biochemical", "conditions": "read-out: IC50, DUB activity by detection of Ub-AMC cleavage"}, "[3]": {"test_system": "Lewis Lung Carcinoma (LLC) tumors", "test": "Syngenic lung carcinoma (LLC) model", "type": "in vivo, C57BL/6J mice", "conditions": "5 mg/kg i.p."}}, "data": [{"smiles": "C=CC(=O)N1C/C(=C\\c2ccc([N+](=O)[O-])cc2)C(=O)/C(=C/c2ccc([N+](=O)[O-])cc2)C1", "note": "[b-AP15, (3E,5E)-3,5-bis[(4-nitrophenyl)methylidene]-1-(prop-2-enoyl)piperidin-4-one]", "values": [{"measurement": "IC50", "setting": "[1]", "value": 800, "unit": "nM"}, {"measurement": "IC50", "setting": "[2]", "value": "2100 ± 411", "unit": "nM"}, {"measurement": "difference in weight at the start and the endpoint between control and treated animals", "setting": "[3]", "value": "+2.1%"}]}]}
